Test results reported in patent US20240101548A1, “HYDROXAMATE COMPOUND, PREPARATION METHOD THEREFOR AND APPLICATION THEREOF” (SHENZHEN CHIPSCREEN BIOSCIENCES CO., LTD., priority 2020, published 2024).

Key:
[1] = system: IL-2-induced JAK1/JAK3 signal pathway; assay: IL-2-induced proliferation of KHYG-1 cells (JAK1/JAK3 signal); type: cell-based, human; conditions: Homo sapiens; KHYG-1 cell proliferation, IL-2 10 ng/mL, 72 hours; read-out: Inhibition activity IC50 on IL-2-induced JAK1/JAK3 signal pathway
Outline: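 Controls were wells lacking both compound and cytokine (0%) and compound-free IL-2 wells (100%). C50 was calculated from inhibition rates across doses.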

[2] = In-vivo pharmacokinetic test in mice; conditions: mouse, po; BALB/c female mice, gavage 10 mg/kg, plasma
Method: LC-MS/MS method is used to determine the drug concentration in the plasma of mice at different times after intragastric administration of the compound of the example. Relevant pharmacokinetic parameters are calculated to study the pharmacokinetic behavior of the compound of the present invention in mice, thereby evaluating the pharmacokinetic characteristics thereof.
Test animal was healthy adult BALB/c female mouse (provided by Chengdu Yaokang Biotechnology Co., Ltd.);
Compound administration and sample collection: compound was administered to BALB/c female mice by gavage (10 mg/kg). At 0.25, 0.5, 1, 2, 4, 6, 8, and 24 hours after administration, 60 μL of whole blood of the mouse fundus venous plexus were collected and centrifuged at 4000 rpm for 10 min to provide plasma.
Sample analysis: 10 μL of mouse plasma samples were respectively added with 290 μL of acetonitrile solution containing internal standard to precipitate proteins. After swirling for 10 min and centrifuging at 4000 rpm for 10 min, 200 μL of supernatant was added to 96-well plate, and analyzed by LC-MS/MS at an injection volume of 1 μL.

[3] = system: EPO-induced JAK2 signal pathway; assay: EPO-induced proliferation of UT-7 cells (JAK2 signal); type: cell-based, human; conditions: Homo sapiens, UT7; UT-7 cell proliferation, EPO 10 ng/mL, 72 hours; read-out: Inhibition activity IC50 on EPO-induced JAK2 signal pathway
Outline: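 […] was derived from inhibition rates across doses, scaled between wells lacking compound and cytokine (0) and EPO without compound (100), using alamarBlue fluorescence at Ex530/Em590. Compound (final 0-10000 nM) and 10 ng/mL EPO were given to UT-7 cells at 15000 per well for 72 h at 37° C.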

Compound	IC50 [1] [µM]	AUC [2] [µM·h]	Cmax [2] [µM]	IC50 [3] [µM]
CCONC(=O)c1cnc(NC(=O)C2CC2)cc1Nc1cccc(-c2ncc(Cl)cn2)c1OC [Example 219, 4-((3-(5-chloropyrimidin-2-yl)-2-methoxyphenyl)amino)-6-(cyclopropylcarboxamido)-N-ethoxy nicotinamide]	> 10	16.8	10.3	> 10
CCONC(=O)c1cnc(Nc2cc(C)nc(C)n2)cc1Nc1cc(F)cc(-c2ncccn2)c1OC [Example 215, 6-((2,6-dimethylpyrimidin-4-yl)amino)-N-ethoxy-4-((5-fluoro-2-methoxy-3-(pyrimidin-2-yl)phenyl)amino)nicotinamide]	> 10	25.8	13.6	> 10
CCONC(=O)c1cnc(Nc2cc(C)nc(C)n2)cc1Nc1ccc(C(F)(F)F)cc1N(C)S(C)(=O)=O [Example 202, 6-((2,6-dimethylpyrimidin-4-yl)amino)-N-ethoxy-4-((2-(N-methylmethanesulfonamido)-4-(trifluoromethyl)phenyl)amino)nicotinamide]	> 10			> 10
CCONC(=O)c1cnc(Nc2cc(C)nc(C)n2)cc1Nc1cccc(-c2ncccn2)c1OC [Example 212]	> 10	16.3	15	> 10
CCONC(=O)c1cnc(Nc2cc(C)nc(C)n2)cc1Nc1cccc(-c2ncc(C)cn2)c1OC [Example 238, 6-((2,6-dimethylpyrimidin-4-yl)amino)-N-ethoxy-4-((2-methoxy-3-(5-methylpyrimidin-2-yl)phenyl)amino)nicotinamide]	> 10	39.9	15.1	> 10
